According to patent US20260042764A1, “COMPOSITIONS AND METHODS FOR INHIBITION OF KRAS” (TheRas, Inc., priority 2022, published 2026):

Columns and labels:
[1] = biological target: T1, Avi-KRAS G12D (1-169) GppNHp/RAF1 RBD-3xFLAG (52-151) (Homo sapiens, UniProt P01116, G12D); test: Raf1-KRAS G12D-GppNHP disruption HTRF assay (Biological Example 1); format: binding
T1 construct: Avi-KRAS G12D (1-169)
Summary of the method: (§1)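 Percent activity versus DMSO (100%) was derived from HTRF signal after KRAS–RAF1 RBD protein mix was incubated 1 h at room temperature with shaking and detection reagents were added for a further 1 h.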

[2] = biological target: T2, Avi-KRAS G12V (1-169) GppNHp/RAF1 RBD-3xFLAG (52-151) (Homo sapiens, UniProt P01116, G12V); test: Raf1-KRAS G12V-GppNHP disruption HTRF assay (Biological Example 1); format: binding
T2 construct: Avi-KRAS G12V (1-169)
T2 sequence (P01116 1-169 isoform P01116-2 G12V): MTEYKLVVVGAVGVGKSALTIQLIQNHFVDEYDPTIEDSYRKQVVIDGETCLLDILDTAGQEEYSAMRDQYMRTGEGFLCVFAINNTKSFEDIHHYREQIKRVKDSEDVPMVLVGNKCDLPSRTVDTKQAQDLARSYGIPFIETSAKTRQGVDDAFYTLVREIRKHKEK
Summary of the method: as §1

[3] = biological target: T3, Avi-KRAS WT (2-169) GTP/RAF1 RBD-3xFLAG (51-131) (Homo sapiens, UniProt P01116); test: Raf1-KRAS WT-GTP disruption HTRF assay (Biological Example 3); format: binding; conditions: KRAS WT, GTP-loaded
T3 construct: Avi-KRAS WT (2-169)
T3 sequence (P01116 2-169 isoform P01116-2): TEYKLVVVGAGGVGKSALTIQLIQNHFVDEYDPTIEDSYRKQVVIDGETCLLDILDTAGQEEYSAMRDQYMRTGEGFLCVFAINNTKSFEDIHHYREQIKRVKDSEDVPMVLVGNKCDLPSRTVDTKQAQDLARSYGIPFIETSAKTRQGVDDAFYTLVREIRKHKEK
Summary of the method: (§2)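 HTRF PPI read-out (ex 320 nm, em 615 nm) after 1 h RT incubation with shaking; data as % activity vs DMSO (100%), IC50 from curve fit. Complex 50 nM, RBD reagent 75 nM; compound 30-0.005 μM, 3-fold.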

[4] = tested on: SW620 cells (KRAS G12V); test: Cell-based pERK HTRF assay in SW620 cell (Biological Example 4)
Summary of the method: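 Read-out: HTRF pERK signal (excitation 320 nm, emission 615 nm) from lysates of SW620 cells after 4 h compound exposure. Dose range was 9 points, half-log steps from 1 μM, in 0.25% DMSO; antibody incubation ran 4–24 h at room temperature.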

[5] = biological target: T4, Avi-KRAS G12V (2-169) GTP/RAF1 RBD-3xFLAG (51-131) (Homo sapiens, UniProt P01116, G12V); test: Raf1-KRAS G12V-GTP disruption HTRF assay (Biological Example 3); format: binding; conditions: KRAS G12V, GTP-loaded
T4 construct: Avi-KRAS G12V (2-169)
T4 sequence (P01116 2-169 isoform P01116-2 G12V): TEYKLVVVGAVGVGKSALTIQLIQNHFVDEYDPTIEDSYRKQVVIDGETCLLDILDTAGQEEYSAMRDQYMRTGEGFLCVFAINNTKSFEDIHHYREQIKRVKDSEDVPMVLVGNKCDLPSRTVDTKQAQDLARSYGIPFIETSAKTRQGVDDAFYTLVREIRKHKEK
Summary of the method: as §2

[6] = biological target: T5, Avi-KRAS G12R (1-169) GppNHp/RAF1 RBD-3xFLAG (52-151) (Homo sapiens, UniProt P01116, G12R); test: Raf1-KRAS G12R-GppNHP disruption HTRF assay (Biological Example 1); format: binding
T5 construct: Avi-KRAS G12R (1-169)
T5 sequence (P01116 1-169 isoform P01116-2 G12R): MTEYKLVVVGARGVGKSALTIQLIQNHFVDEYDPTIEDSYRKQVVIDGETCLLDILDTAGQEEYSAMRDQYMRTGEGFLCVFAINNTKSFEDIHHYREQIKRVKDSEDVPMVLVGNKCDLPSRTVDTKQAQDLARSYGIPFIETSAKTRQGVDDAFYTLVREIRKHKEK
Summary of the method: as §1

[7] = biological target: T6, Avi-KRAS WT (1-169) GppNHp/RAF1 RBD-3xFLAG (52-151) (Homo sapiens, UniProt P01116); test: Raf1-KRAS WT-GppNHP disruption HTRF assay (Biological Example 1); format: binding
T6 construct: Avi-KRAS WT (1-169)
T6 sequence (P01116 1-169 isoform P01116-2): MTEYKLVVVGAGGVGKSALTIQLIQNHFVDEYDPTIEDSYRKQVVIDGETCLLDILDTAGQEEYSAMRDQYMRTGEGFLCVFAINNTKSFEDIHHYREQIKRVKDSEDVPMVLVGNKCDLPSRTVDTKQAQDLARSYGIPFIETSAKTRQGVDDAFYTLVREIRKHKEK
Summary of the method: as §1

[8] = KRAS G12D, GppNHp-loaded, class symbols
[9] = KRAS G12V, GppNHp-loaded, class symbols
[10] = Homo sapiens, SW-620, SW620 (KRAS G12V) cells
[11] = Homo sapiens, SW-620, SW620 (KRAS G12V) cells, pERK HTRF, class symbols
[12] = KRAS G12R, GppNHp-loaded, class symbols
[13] = KRAS WT, GppNHp-loaded, class symbols
[14] = KRAS G12D, GppNHp-loaded, Table 11
[15] = KRAS G12V, GppNHp-loaded, Table 11
[16] = Homo sapiens, SW-620, SW620 (KRAS G12V) cells, pERK HTRF
[17] = KRAS G12R, GppNHp-loaded, Table 11
[18] = KRAS WT, GppNHp-loaded, Table 11

T1 sequence (P01116 1-169 isoform P01116-2 G12D): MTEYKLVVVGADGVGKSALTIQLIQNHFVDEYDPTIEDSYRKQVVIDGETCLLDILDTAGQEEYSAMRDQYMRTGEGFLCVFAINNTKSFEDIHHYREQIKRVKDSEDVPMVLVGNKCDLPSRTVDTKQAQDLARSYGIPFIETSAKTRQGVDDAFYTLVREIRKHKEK

Structure (SMILES) | IC50 [1, 8] | IC50 [2, 9] | IC50 [3] | IC50 [4, 10] | IC50 [4, 11] | IC50 [5] | IC50 [6, 12] | IC50 [7, 13] | IC50 [1, 14] | IC50 [2, 15] | IC50 [4, 16] | IC50 [6, 17] | IC50 [7, 18] | IC50 ([1]; KRAS G12D-GppNHp/RAF1 RBD HTRF) | IC50 ([2]; KRAS G12V-GppNHp/RAF1 RBD HTRF) | IC50 ([4]; SW620 (KRAS G12V) cells, pERK HTRF) | IC50 ([6]; KRAS G12R-GppNHp/RAF1 RBD HTRF) | IC50 ([7]; KRAS WT-GppNHp/RAF1 RBD HTRF) | IC50 ([4]; SW620 (KRAS G12V) cells)
CCN(c1nc(OC[C@@]23CCCN2C[C@H](F)C3)nc2c(F)c(-c3ccc(F)c4sc(N)c(C#N)c34)c(C(F)(F)F)cc12)[C@H]1CCN(C(=O)N2CC(OC)C2)C1 (atropisomer, axis not shown) [Compound 607] | < 100 nM | < 100 nM | ≤ 100 nM | < 100 nM | < 100 nM | ≤ 100 nM | < 100 nM | < 100 nM | – | – | – | – | – | – | – | – | – | – | –
CCN(c1nc(OC[C@@]23CCCN2C[C@H](F)C3)nc2c(F)c(-c3ccc(F)c4sc(N)c(C#N)c34)c(C(F)(F)F)cc12)[C@H]1CCN(C(C)=O)C1 [Compound 262] | – | – | 100 to 1000 nM | < 100 nM | – | 100 to 1000 nM | – | – | < 100 nM | < 100 nM | < 100 nM | < 100 nM | < 100 nM | – | – | – | – | – | –
N#Cc1c(N)sc2c(F)ccc(-c3c(C(F)(F)F)cc4c(N5CCn6nc(C(=O)N7CCOCC7)cc6C5)nc(OCC56CCCN5CC(F)C6)nc4c3F)c12 (stereo not shown) [Compound 646] | < 100 nM | < 100 nM | 1000 to 10000 nM | < 100 nM | < 100 nM | 100 to 1000 nM | < 100 nM | 100 to 1000 nM | – | – | – | – | – | – | – | – | – | – | –
N#Cc1c(N)sc2c(F)ccc(-c3c(C(F)(F)F)cc4c(N5CCCOCC5)nc(OC[C@@]56CCCN5C[C@H](F)C6)nc4c3F)c12 [Compound 232] | – | – | 100 to 1000 nM | < 100 nM | – | 100 to 1000 nM | – | – | < 100 nM | 100 to 1000 nM | < 100 nM | 100 to 1000 nM | 100 to 1000 nM | – | – | – | – | – | –
CCN(c1nc(OC[C@@]23CCCN2C[C@H](F)C3)nc2c(F)c(-c3ccc(F)c4sc(N)c(C#N)c34)c(C(F)(F)F)cc12)[C@H]1CCN(C(=O)[C@@H]2CCO2)C1 (atropisomer, axis not shown) [Compound 603] | < 100 nM | < 100 nM | 100 to 1000 nM | < 100 nM | < 100 nM | ≤ 100 nM | < 100 nM | < 100 nM | – | – | – | – | – | – | – | – | – | – | –
C[C@@H]1[C@H](N(C)c2nc(OC[C@@]34CCCN3C[C@H](F)C4)nc3c(F)c(-c4ccc(F)c5sc(N)c(C#N)c45)c(C(F)(F)F)cc23)CCN1C(=O)C1CC1 (atropisomer, axis not shown) [Compound 333] | – | – | 100 to 1000 nM | < 100 nM | – | 100 to 1000 nM | – | – | – | – | – | – | – | < 100 nM | 100 to 1000 nM | < 100 nM | < 100 nM | < 100 nM | –
CCN(c1nc(OC[C@@]23CCCN2C[C@H](F)C3)nc2c(F)c(-c3ccc(F)c4sc(N)c(C#N)c34)c(C(F)(F)F)cc12)[C@H]1CCN(C(=O)N2CC(F)C2)C1 (atropisomer, axis not shown) [Compound 606] | < 100 nM | < 100 nM | 100 to 1000 nM | < 100 nM | < 100 nM | ≤ 100 nM | < 100 nM | < 100 nM | – | – | – | – | – | – | – | – | – | – | –
CCN(c1nc(OC[C@@]23CCCN2C[C@H](F)C3)nc2c(F)c(-c3ccc(F)c4sc(N)c(C#N)c34)c(C(F)(F)F)cc12)[C@@H]1CCN(C(=O)C(C)C)C1 [Compound 328] | – | – | 100 to 1000 nM | < 100 nM | – | 1000 to 10000 nM | – | – | – | – | < 100 nM | – | – | 100 to 1000 nM | 100 to 1000 nM | – | 100 to 1000 nM | 100 to 1000 nM | –
C[C@H](c1cccnc1N)N(C)c1nc(OC[C@@]23CCCN2C[C@H](F)C3)nc2c(F)c(-c3ccc(F)c4sc(N)c(C#N)c34)c(C(F)(F)F)cc12 (atropisomer, axis not shown) [Compound 600] | < 100 nM | < 100 nM | 100 to 1000 nM | < 100 nM | < 100 nM | ≤ 100 nM | < 100 nM | < 100 nM | – | – | – | – | – | – | – | – | – | – | –
N#Cc1c(N)sc2c(F)ccc(-c3c(C(F)(F)F)cc4c(N5CC6CC(C5)O6)nc(OC[C@@]56CCCN5C[C@H](F)C6)nc4c3F)c12 [Compound 145] | – | – | 1000 to 10000 nM | < 100 nM | – | 1000 to 10000 nM | – | – | 100 to 1000 nM | 100 to 1000 nM | < 100 nM | 100 to 1000 nM | 100 to 1000 nM | – | – | – | – | – | –
C=C(C)C(=O)N1CC[C@H](N(CC)c2nc(OC[C@@]34CCCN3C[C@H](F)C4)nc3c(F)c(-c4ccc(F)c5sc(N)c(C#N)c45)c(C(F)(F)F)cc23)C1 (atropisomer, axis not shown) [Compound 673] | < 100 nM | < 100 nM | 100 to 1000 nM | < 100 nM | < 100 nM | 100 to 1000 nM | < 100 nM | < 100 nM | – | – | – | – | – | – | – | – | – | – | –
CCN(c1nc(OC[C@@]23CCCN2C[C@H](F)C3)nc2c(F)c(-c3ccc(F)c4sc(N)c(C#N)c34)c(C(F)(F)F)cc12)[C@@H]1CC(=O)N(C2CC2)C1 (atropisomer, axis not shown) [Compound 703] | 100 to 1000 nM | 1000 to 10000 nM | 1000 to 10000 nM | – | < 100 nM | 1000 to 10000 nM | 1000 to 10000 nM | 100 to 1000 nM | – | – | – | – | – | – | – | – | – | – | < 100 nM
CCN(c1nc(OC[C@@]23CCCN2C[C@H](F)C3)nc2c(F)c(-c3ccc(F)c4sc(N)c(C#N)c34)c(C(F)(F)F)cc12)[C@H]1C[C@@H](C)N(C(=O)C2COC2)C1 (atropisomer, axis not shown) [Compound 586] | < 100 nM | 100 to 1000 nM | 100 to 1000 nM | < 100 nM | < 100 nM | 100 to 1000 nM | < 100 nM | < 100 nM | – | – | – | – | – | – | – | – | – | – | –
CCN(c1nc(OC[C@@]23CCCN2C[C@H](F)C3)nc2c(F)c(-c3ccc(F)c4sc(N)c(C#N)c34)c(C(F)(F)F)cc12)[C@H]1CCN(C(=O)C2CC2)[C@@H]1C (atropisomer, axis not shown) [Compound 579] | < 100 nM | < 100 nM | 100 to 1000 nM | < 100 nM | < 100 nM | 100 to 1000 nM | < 100 nM | < 100 nM | – | – | – | – | – | – | – | – | – | – | –
